Patent EP2095819A1, “N-benzyl imidazole derivatives and their use as aldosterone synthase inhibitors” (Maastricht University, priority 2008, dated 2009)

What was measured:
human CYP11B1 = biological target: T1, human CYP11B1 (Homo sapiens, UniProt P15538); assay: Inhibitor potency for human CYP11B1 in V79 cells expressing the enzyme (HPLC steroid analysis); format: cell-based; conditions: V79 cells (over)expressing human CYP11B1; 1 hour with inhibitor, then 11-deoxycorticosterone 500 nM for another hour; read-out: IC50 11B1
T1 construct: The full length cDNA for human CYP11B1 was obtained by PCR from human adrenal cDNA; expressed in transfected cells; host or cells: V79 Chinese hamster cells, stably transfected with pcDNA3.1 (hygromycin resistance)
T1 sequence (P15538 25-503): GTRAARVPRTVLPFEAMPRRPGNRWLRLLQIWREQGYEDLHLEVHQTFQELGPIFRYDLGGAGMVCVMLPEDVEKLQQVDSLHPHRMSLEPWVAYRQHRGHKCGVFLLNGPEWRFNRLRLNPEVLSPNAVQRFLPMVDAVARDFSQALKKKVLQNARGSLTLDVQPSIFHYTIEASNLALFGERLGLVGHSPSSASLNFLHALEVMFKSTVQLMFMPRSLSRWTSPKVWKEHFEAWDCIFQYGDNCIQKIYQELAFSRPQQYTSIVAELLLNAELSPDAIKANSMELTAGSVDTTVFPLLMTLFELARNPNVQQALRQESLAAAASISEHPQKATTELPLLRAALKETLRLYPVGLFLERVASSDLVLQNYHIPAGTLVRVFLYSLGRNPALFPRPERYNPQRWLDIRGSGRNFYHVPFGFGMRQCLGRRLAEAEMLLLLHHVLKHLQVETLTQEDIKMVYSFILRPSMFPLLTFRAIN
Description: (§1) Inhibitor potencies for human CYP11B1 and CYP11B2 were determined in an in vitro assay using V79 cells in which human CYP11B1 or CYP11B2 are expressed.
The human CYP11B1 (over)expressing V79 cells (stably transfected with a pcDNA3.1 vector, carrying a hygromycin resistance box) were constructed at Organon (Newhouse, UK) in the following manner. The full length cDNA for human CYP11B1 was obtained by PCR from human adrenal cDNA as described by Kawamoto et al ("Cloning of cDNA and genomic DNA for human cytochrome P-45011 beta" FEBS Lett 1990;269:345-9) and cloned into pPCR SCRIPT (Stratagene, La Jolla, USA). After digestion with Xho I and Not I, the obtained cDNA was inserted into a Xho I/Not I digested pcDNA3.1 vector (InVitrogen, Breda, Netherlands), carrying a hygromycin resistance box. Following transfection to the V79 cells, positive cells were selected based on their hygromycin resistance. The presence of the CYP11B1 gene was confirmed by PCR and the presence of 11β-hydroxylase activity (i.e. the ability to produce corticosterone or cortisol from 11-deoxycorticosterone or 11-deoxycortisol respectively). […] In normal (non transfected) V79 cells, no detectable 11β-hydroxylase activity or PCR signals were found.
(§2) Cells were cultured under standard conditions in DMEM/FK12 medium (Gibco, Gaitersburg, USA) supplemented with 10% foetal calf serum (Hyclone, Logan, USA), penicillin/streptomycin (100 U/ml and 100 µg/ml, respectively Gibco). Cell culturing and incubation experiments (see below) with the cells were performed at 37°C in a humid environment and 5%CO2 atmosphere.
(§3) Next, cells were incubated for 1 hour in serum free medium with cumulative inhibitor concentrations. […] After these incubation times, medium was collected for steroid analysis by HPLC. To extract the (produced) steroids from the medium, 1 ml aliquots of medium were mixed with 1 ml 1 M sodium-glycine buffer (pH 10.5) containing 500 nM methylprednisolone (Sigma-Aldrich) as internal standard and 5 ml of diethylether (Biosolve, Valkenswaard, the Netherlands). After shaking for 3 minutes, the samples were briefly centrifuged and the organic phase (containing the steroids) transferred into another tube and blown to dryness under a stream of nitrogen. The dried extracts were dissolved in 100 µl of mobile phase to be used for automated HPLC analysis. The HPLC system comprised a MR column (4.6 x 50 mm, particle size 2.5 µm; Shimadzu, Tokyo, Japan) as a stationary phase and a mixture of 680/320/1 (v/v/v) milliQ water, acetonitrile and trifluoro-acetic acid as mobile phase at a flow rate of 1.0 ml/minute. Steroids were detected by UV absorption at 243 nm (Shimadzu, Tokyo, Japan). To quantitate the steroids, peak area ratios versus the internal standard (methylprednisolone) were determined and compared with calibration curves.
(§4) Determination of IC50 values (potencies) was based on at least 5 inhibitor concentrations and was derived from the generic equation for enzyme inhibition at fixed substrate concentration vi = v0/(1 + I/IC50) with vi and v0 being the reaction velocities in the presence or absence of inhibitor respectively, and I being the inhibitor concentration (Cornish-Bowden A, "Analysis of enzyme kinetic data.", Oxford University Press, Oxford, 1995). All analyses were conducted at least in duplicate. […]

human CYP11B2 = biological target: T2, human CYP11B2 (Homo sapiens, UniProt P19099); assay: Inhibitor potency for human CYP11B2 in V79 cells expressing the enzyme (HPLC steroid analysis); format: cell-based; conditions: for Ratio: Ratio = IC50 CYP11B1/ IC50 CYP11B2 (selectivity); for IC50: V79 cells stably (over)expressing human CYP11B2, 1 hour with inhibitor, then 11-deoxycorticosterone 500 nM for three hours, read-out: IC50 11B2
T2 construct: expressed in transfected cells; host or cells: V79 Chinese hamster cells
T2 sequence (P19099 25-503): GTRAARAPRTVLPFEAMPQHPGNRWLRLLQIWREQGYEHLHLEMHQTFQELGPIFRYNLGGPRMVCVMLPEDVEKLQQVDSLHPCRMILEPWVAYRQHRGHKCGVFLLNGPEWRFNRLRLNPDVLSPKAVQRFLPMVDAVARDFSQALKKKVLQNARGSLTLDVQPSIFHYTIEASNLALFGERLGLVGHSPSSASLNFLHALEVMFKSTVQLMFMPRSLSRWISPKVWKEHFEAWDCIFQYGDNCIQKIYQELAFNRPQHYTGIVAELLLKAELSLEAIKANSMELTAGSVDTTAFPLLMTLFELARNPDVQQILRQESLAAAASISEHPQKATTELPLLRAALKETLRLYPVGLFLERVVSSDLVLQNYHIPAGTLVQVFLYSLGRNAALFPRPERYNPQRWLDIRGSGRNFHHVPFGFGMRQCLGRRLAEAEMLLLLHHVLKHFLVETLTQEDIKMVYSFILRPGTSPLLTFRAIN
Description: as §1
The V79 cells stably (over)expressing human CYP11 B2 were developed in the laboratory of Prof. Rita Bernhardt, Institute of Biochemistry, Saarland University, Saarbrücken, Germany : • Denner K, Doehmer J,Bernhardt R. "Cloning of CYP11B1 and CYP11B2 from normal human adrenal and their functional expression in COS-7 and V79 Chinese hamster cells" Endocr Res 1995;21:443-8; • Bottner B, Denner K, Bernhardt R "Conferring aldosterone synthesis to human CYP11B1 by replacing key amino acid residues with CYP11B2 ones", Eur. J. Biochem. 1998; 252: 458-466; • Denner K, Vogel R, Schmalix W, Doehmer J, Bernhardt R.: "Cloning and stable expression of the human mitochondrial cytochrome P45011B1 cDNA in V79 Chinese hamster cells and their application for testing of potential inhibitors." Pharmacogenetics 1995; 5: 89-96; • Denner K, Bernhardt R. "Inhibition studies of steroid conversions mediated by human CYP11B1 and CYP11B2 expressed in cell cultures". In: Oxygen Homeostasis and Its Dynamics. Springer-Verlag, Tokyo, Berlin, Heidelberg, New York 1998, pp 231-236; • Ehmer PB, Bureik M, Bernhardt R, Muller U, Hartmann RW. "Development of a test system for inhibitors of human aldosterone synthase (CYP11B2): screening in fission yeast and evaluation of selectivity in V79 cells." J. Steroid Biochem Mol Biol. 2002; 81: 173-179.
as §2, §3, §4

Row | SMILES | IC50 (human CYP11B1) | Ratio (human CYP11B2) | IC50 (human CYP11B2)
1 | N#Cc1ccc(Cn2cncc2-c2ccccc2)cc1 [Compound 43, 4-[(5-Phenyl-1H-imidazol-1-yl)methyl]benzonitrile] | 27.5 nM | 15.7 | 1.7 nM
2 | COC(=O)c1cncn1Cc1ccc(C#N)cc1 [Compound 45, Methyl 1-(4-cyanobenzyl)-1H-imidazole-5-carboxylate] | 47.8 nM | 6.7 | 7.1 nM
3 | Cc1ccccc1-c1cncn1Cc1ccc(C#N)cc1 [Compound 57, 4-[(5-(2-Methylphenyl)-1H-imidazol-1-yl)methyl]benzonitrile] | 7.6 nM | 10.5 | 0.7 nM
4 | N#Cc1ccc(Cn2cncc2C=O)cc1 [Compound 44, 4-[(5-Formyl-1H-imidazol-1-yl)methyl]benzonitrile] | 478 nM | 7.7 | 61.8 nM
5 | COC(=O)CCc1cncn1Cc1ccc(C#N)cc1 [Compound 18, Methyl 3-[1-(4-cyanobenzyl)-1H-imidazol-5-yl]propanoate] | 31.1 nM | 8.9 | 3.5 nM

Next, values leading:

Row | IC50 (human CYP11B1) | Ratio (human CYP11B2) | IC50 (human CYP11B2) | SMILES
6 | 13.7 nM | 5.9 | 2.3 nM | O=[N+]([O-])c1ccc(Cn2cncc2-c2ccccc2)cc1 [Compound 50, 1-(4-Nitrobenzyl)-5-phenyl-1H-imidazole]
7 | 140 nM | 11.4 | 12.3 nM | Cc1cncn1Cc1ccc(C#N)cc1 [Compound 42, 4-[(5-Methyl-1H-imidazol-1-yl)methyl]benzonitrile]
8 | 285 nM | 10 | 28.5 nM | N#Cc1ccc(Cn2cncc2CO)cc1 [Compound 52, 1-(4-cyanobenzyl)-5-hydroxymethyl-1H-imidazole]
9 | 116 nM | 6.9 | 16.8 nM | OCCCc1cncn1Cc1ccc(F)cc1 [Compound 15, 3-[1-(4-Fluorobenzyl)-1H-imidazol-5-yl]propanol]
10 | 31.8 nM | 5.8 | 5.5 nM | N#Cc1ccc(Cn2cncc2-c2cccc(F)c2)cc1 [Compound 58, 4-[(5-(3-Fluorophenyl)-1H-imidazol-1-yl)methyl]benzonitrile]
11 | 57.4 nM | 14.4 | 4 nM | COC(=O)CCc1cncn1Cc1ccc(Br)cc1 [Compound 20, Methyl 3-[1-(4-bromobenzyl)-1H-imidazol-5-yl]propanoate]
